Where a name gives a salt, the structure may show the parent alone.
Experiments:
Format in all cases: physicochemical
[1] = Color difference after degasification of vial at various pressures and replacement by nitrogen; conditions: 80° C./1 week, n = 6
Method: As the monohydrate, the powdery charged preparations for injection of the novel carbapenem crystals (25 mg/vial) obtained by degasification of the air in the vial at 100, 10, 1, 0.1 and 0.01 hPa (hectopascal) respectively and subsequent replacement by nitrogen according to the method in Example 2-3 (replacement by nitrogen) were stored at 60° C. for 1 or 4 weeks (N=6) and then measured for their color difference (ΔE). The oxygen concentrations in the preparations in vials degasified at 100, 10, 1, 0.1, 0.01 hPa (hectopascal) were measured by an oxygen analyzer (RO-101, Iizima Kogyo). As the trihydrate, the powdery charged preparations of the novel carbapenem hydrochloride crystals (25 mg/vial) obtained in the method in Example 1-9 (replacement by nitrogen) were degasified in the same manner, stored at 80° C. for 1 week (N=6) and then measured for their color difference (ΔE). As the control, the powdery charged preparation of the novel carbapenem hydrochloride crystals (25 mg/vial) subjected to neither degasification nor replacement by nitrogen was used.

[2] = Storage of crystals in bottles without caps at various relative humidity, with or without oxygen absorbent; conditions: 25° C., 2 weeks; for water content (hygroscopicity): listed as trihydrate crystals, monohydrochloride trihydrate
Method: The novel carbapenem hydrochloride crystals were weighed in 25 mL wide-mouthed glass bottles (30 mg/bottle), and in the bottles without caps, the monohydrate was stored for 1 week at 40° C. at a relative humidity of 0%, 19.2%, 53% and 75%, and the trihydrate was stored for 2 weeks at 25° C. at a relative humidity of 11%, 33%, 51%, 75% and 93%. Then, the crystals were measured for their color difference (ΔE), water content, powdery X-ray diffraction pattern, and content of residual carbapenem. The monohydrate was also examined in the presence or absence of an oxygen absorbent (trade name: Ageless, produced by Mitsubishi Gas Chemical Co., Ltd.) during storage at each relative humidity. The oxygen absorbent makes oxygen-free conditions under which the preparation is placed.

[3] = Effect of degasification of the air in a vial and/or replacement by nitrogen (storage of powdery charged preparations); conditions: 25 mg/vial, storage at 40° C. for 1 month
Method: As the monohydrate crystals, the powdery charged preparation of the novel carbapenem hydrochloride crystals (25 mg/vial) obtained in the method in Example 2-3 (replacement by nitrogen), the powdery charged preparation (25 mg/vial) subjected to replacement by oxygen in place of replacement by nitrogen in Example 2-3, and the powdery charged preparation (25 mg/vial) not subjected to replacement in Example 2-2 were stored at 60° C. for 5 days (N=3) and then measured for their color difference (ΔE), water content, powdery x-ray diffraction pattern, content of residual carbapenem and HPLC impurities. As the trihydrate crystals, the powdery charged preparation of the novel carbapenem hydrochloride crystals (25 mg/vial) obtained by the method (replacement by nitrogen) in Example 1-9 and the powdery charged preparation (25 mg/vial) not subjected to replacement in Example 1-8 were stored at 40° C. for 1 month and then measured for their color difference (ΔE), water content and content of residual carbapenem. The color difference was evaluated by a color difference meter (ZE-200, Nippondenso Co., Ltd.); the water content by a Karl-Fisher moisture meter (CA-05, Mitsubishi Kagaku Kogyo); the powdery X-ray diffraction under the method and conditions in Example 1-1 or 2-1; and the content of residual carbapenem and HPLC impurities by high performance liquid chromatography (Shimadzu Corporation). The color difference (ΔE) is a parameter indicative of a change in the color of the outward appearance of crystals, and its higher value indicates a greater coloration change than at an initial stage (just after production).

[4] = Solubility in 62.5% (v/v) aqueous organic solvents, quantification in HPLC; conditions: 20° C., 30 minutes, monohydrochloride trihydrate
Method: The solubility of (+)-(1R,5S,6S)-6-[(R)-1-hydroxyethyl]-1-methyl-2-[(2S,4S)-2-[(3R)-pyrrolidine-3-yl-(R)-hydroxymethyl]pyrrolidine-4-yl]thio-1-carbapen-2-em-3-carboxylic acid monohydrochloride monohydrate and trihydrate in various aqueous organic solvents at a concentration of 62.5% (v/v) in water at 20° C. was determined by HPLC in the following manner.

[5] = Storage of crystals in bottles without caps at various relative humidity, with or without oxygen absorbent; conditions: 25° C., 2 weeks, listed as trihydrate crystals, monohydrochloride trihydrate

C[C@@H](O)[C@H]1C(=O)N2C(C(=O)O)=C(S[C@@H]3CN[C@H]([C@H](O)[C@@H]4CCNC4)C3)[C@H](C)[C@H]12 [trihydrate, (+)-(1R,5S,6S)-6-[(R)-1-Hydroxyethyl]-1-methyl-2-[(2S,4S)-2-[(3R)-pyrrolidine-3-yl-(R)-hydroxymethyl]pyrrolidine-4-yl]thio-1-carbapen-2-em-3-carboxylic acid monohydrochloride trihydrate]
color difference (ΔE) ([1]; control: neither degasification nor replacement by nitrogen): 10.06
color difference (ΔE) ([1]; vial degasified at 1 hPa, replaced by nitrogen): 3.62
color difference (ΔE) ([1]; vial degasified at 10 hPa, replaced by nitrogen): 3.92
color difference (ΔE) ([1]; vial degasified at 100 hPa, replaced by nitrogen): 4.90
powdery X-ray diffraction pattern (hygroscopicity) ([2]; relative humidity 11%): no change
powdery X-ray diffraction pattern (hygroscopicity) ([2]; relative humidity 33%): no change
water content (hygroscopicity) ([2]; relative humidity 33%): 11.1%
powdery X-ray diffraction pattern (hygroscopicity) ([2]; relative humidity 51%): no change
water content (hygroscopicity) ([2]; relative humidity 51%): 11.1%
powdery X-ray diffraction pattern (hygroscopicity) ([2]; relative humidity 75%): no change
powdery X-ray diffraction pattern (hygroscopicity) ([2]; relative humidity 93%): no change
color difference (ΔE) ([3]; control (air)): 2.78
content of residual carbapenem compound ([3]; control (air)): 101.0%
water content ([3]; control (air)): 12.0%
color difference (ΔE) ([3]; gas for replacement nitrogen): 0.00
content of residual carbapenem compound ([3]; gas for replacement nitrogen): 100.2%
water content ([3]; gas for replacement nitrogen): 11.3%
solubility ([4]; 62.5% (v/v) 1-acetoxy-2-methyl ethane in water): 2850 µg/mL
solubility ([4]; 62.5% (v/v) 1-ethoxy-2-propanol in water): 3320 µg/mL
solubility ([4]; 62.5% (v/v) 1-methoxy-2-propanol in water): 3370 µg/mL
solubility ([4]; 62.5% (v/v) 2-butoxyethanol in water): 11850 µg/mL
solubility ([4]; 62.5% (v/v) 2-ethoxyethanol in water): 4360 µg/mL
solubility ([4]; 62.5% (v/v) 2-isopropoxyethanol in water): 4360 µg/mL
solubility ([4]; 62.5% (v/v) 2-methoxyethanol in water): 6390 µg/mL
solubility ([4]; 62.5% (v/v) 3-methoxy-3-methyl-1-butanol in water): 4860 µg/mL
solubility ([4]; 62.5% (v/v) 3-methoxybutanol in water): 3240 µg/mL
solubility ([4]; 62.5% (v/v) IPA (isopropyl alcohol) in water): 4740 µg/mL
solubility ([4]; 62.5% (v/v) acetonitrile in water): 12990 µg/mL
solubility ([4]; 62.5% (v/v) diethylene glycol monoethyl ether in water): 2680 µg/mL
solubility ([4]; 62.5% (v/v) diethylene glycol monomethyl ether in water): 2410 µg/mL
solubility ([4]; 62.5% (v/v) dimethyl acetamide in water): 4530 µg/mL
solubility ([4]; 62.5% (v/v) dimethyl ether in water): 1440 µg/mL
solubility ([4]; 62.5% (v/v) dimethyl formamide in water): 7310 µg/mL
solubility ([4]; 62.5% (v/v) dimethyl sulfoxide in water): 11840 µg/mL
solubility ([4]; 62.5% (v/v) ethanol in water): 6320 µg/mL
solubility ([4]; 62.5% (v/v) methanol in water): 14380 µg/mL
solubility ([4]; 62.5% (v/v) n-propanol in water): 10460 µg/mL
solubility ([4]; 62.5% (v/v) t-butanol in water): 6060 µg/mL
solubility ([4]; 62.5% (v/v) tetrahydrofuran in water): 5290 µg/mL
solubility ([4]; 62.5% (v/v) triethylene glycol monomethyl ether in water): 2470 µg/mL
water content (hygroscopicity) ([5]; relative humidity 11%): 11.0%
water content (hygroscopicity) ([5]; relative humidity 75%): 11.1%
water content (hygroscopicity) ([5]; relative humidity 93%): 11.4%

— patent publication US7084268B1, “Carbapenem compound crystals and interjection preparations” (Eisai Co., Ltd., priority 1999, dated 2006)
